According to patent publication US20260335397A1, “TREATMENT OF GEOGRAPHIC ATROPHY” (Apellis Pharmaceuticals, Inc., priority 2022, published 2026):

Assays:
[1] = tested on: geographic atrophy (GA) secondary to age-related macular degeneration (AMD); assay: Post-hoc analysis of time to foveal light insensitivity, 4 central points of MAIA grid, OAKS study; assay type: in vivo, human
Method: This Example describes a post-hoc analysis of results from the OAKS study described in Example 1 that was performed in order to assess the effect of pegcetacoplan monthly (PM) or every other month (PEOM) vs sham treatment in delaying occurrence of foveal insensitivity measured by the 4 most centrally located stimulus points of the MAcular Integrity Assessment (MAIA) grid. Absolute scotomatous points of −1 dB were considered present when a reaction was not evoked by the brightest possible light stimulus.
Light insensitivity was defined as absence of response to −1 dB at the stimulus point. For the time-to-event analysis, a foveal light insensitivity event was defined as the first light insensitivity (−1 dB) occurring at all 4 central stimuli. Events were measured at the exact date of a patient visit and depicted via Kaplan-Meier plots. A Cox proportional hazards model was applied factoring treatment, choroidal neovascularisation in the fellow eye, baseline GA lesion area, and baseline number of central 4 scotomatous points (categorical). Hazard ratios (HRs) of PM and PEOM were estimated.

[2] = tested on: geographic atrophy (GA) secondary to age-related macular degeneration (AMD); assay: Post hoc microperimetry perilesional analysis, OAKS study; assay type: in vivo, human; settings: 24 months
Method: LS means estimated from MMRM analysis. […] Perilesional area defined as −250 μm inside baseline atrophy border to +250 μm outside atrophy border. dB=decibel; LS=least square; M=month; mITT=modified intent-to-treat; MMRM=mixed-effects model for repeated measures; PEOM=pegcetacoplan every other month; PM=pegcetacoplan monthly; SE=standard error.
A post hoc microperimetry perilesional analysis was performed on patients in the OAKS study to assess whether pegcetacoplan preservation of retinal tissue was reflected in preserved photoreceptor function in retina near GA lesion borders at baseline. Geographic atrophy lesion borders grow at approximately 100-150 microns per year. An assessment was performed of visual function of cells within 250 microns on either side of the lesion border, which are at the highest risk of permanently losing visual function as lesions expand. Reduction of retinal sensitivity as measured by microperimetry reflects loss of function.
Perilesional area (area within 250 microns of each side of GA lesion border) was created on fundus autofluorescence for each patient, and microperimetry endpoints were assessed within this region (68 spots on grid). In this analysis, approximately 21-22 points (out of 68 total—about one-third) qualified as “peri-lesional” using the 500 micron zone definition (250 inside and 250 outside of GA lesion border). A representative image is depicted as FIG. 5. […] Patients in both monthly (0.564 dB; p=0.0650) and every-other-month (EOM) (0.707 dB; p=0.0202) pegcetacoplan treatment groups lost less retinal sensitivity compared to the sham group over 24 months with increasing effects over time. Scotomatous points measure areas of the retina that have lost all light sensitivity and therefore are no longer functioning. Patients in both monthly (−0.680 points; p=0.1444) and EOM (−1.138 points; p=0.0140) pegcetacoplan treatment groups had fewer new scotomatous points compared to sham over 24 months with increasing effects over time.

“Poly(oxy-1,2-ethanediyl), α-hydro-ω-hydroxy-, 15,15′-diester with N-acetyl-L-isoleucyl-L-cysteinyl-L-valyl-1-methyl-L-tryptophyl-L-glutaminyl-L-α-aspartyl-L-tryptophylglycyl-L-alanyl-L-histidyl-L-arginyl-L-cysteinyl-L-threonyl-2-[2-(2-aminoethoxy)ethoxy]acetyl-N^6-carboxy-L-lysinamide cyclic (2->12)-(disulfide) [pegcetacoplan]” was tested, and the “HR, occurrence of foveal light insensitivity vs sham” value ([1]; PEOM, 95% CI: 0.45, 0.92, p=0.0164) was 0.64, the “Conversion of all 4 central points to scotoma in the study eye, patients” value ([1]; PEOM, n=152, 24 months) was 59 patients and the “Conversion of all 4 central points to scotoma in the study eye, percent of patients” value ([1]; PEOM, n=152, 24 months) was 38.8%. For the same substance, the “onset of foveal light insensitivity / loss of foveal light sensitivity” value ([1]; PM and PEOM, twenty-four-month data) was “Meaningful delays in loss of foveal light sensitivity”, the “HR, occurrence of foveal light insensitivity vs sham” value ([1]; PM, 95% CI: 0.46, 0.96, p=0.0282) was 0.66 and the “Conversion of all 4 central points to scotoma in the study eye, patients” value ([1]; PM, n=155, 24 months) was 54 patients. The “Conversion of all 4 central points to scotoma in the study eye, percent of patients” value ([1]; PM, n=155, 24 months) was 34.8%, the “microperimetry measures, perilesional” value ([2]; all p-values nominal) was “positive trends in microperimetry measures” and the “new scotomatous points (perilesional) compared to sham” value ([2]; EOM, p=0.0140 (nominal)) was −1.138 points. The “less loss of retinal sensitivity (perilesional mean threshold sensitivity) compared to sham” value ([2]; every-other-month (EOM), p=0.0202 (nominal)) was 0.707 dB, the “less loss of retinal sensitivity (perilesional mean threshold sensitivity) compared to sham” value ([2]; monthly, p=0.0650 (nominal)) was 0.564 dB and the “new scotomatous points (perilesional) compared to sham” value ([2]; monthly, p=0.1444 (nominal)) was −0.680 points.
